Here are results for 31 compounds from patent US8129527B2, “Analogs of dehydrophenylahistins and their therapeutic use” (Nereus Pharmacuticals, Inc., priority 2006, dated 2012).

Marks after values point to notes of the source that are not given here.

One data set concerns HT-29 human colon tumor. Briefly: HT-29 Human Colon Tumor Xenograft Model. The data set is classed as in vivo. The note with it: for Chemotherapeutic Agent Result TGI %: CPT-11 alone 100 ip qwx3. The procedure:
Selected novel compounds were administered as monotherapy via the intraperitoneal (i.p.) route at the doses indicated for the individual study; for the combination studies the selected reference chemotherapy agents were injected 15-30 min prior to the compound.
Saline dilutions are used to achieve the injection concentrations used for the reference compounds.
Animals were implanted subcutaneously (s.c.) by trocar with fragments of HT-29 tumors harvested from s.c. growing tumors in nude mice hosts. When the tumor size reached 5 mm×5 mm (about 10-17 days) the animals were matched into treatment and control groups. Mice were weighed twice weekly and tumor measurements were obtained using calipers twice weekly, starting on Day 1. The tumor measurements were converted to estimated mg tumor weight using the formula (W^2×L)/2. When the estimated tumor weight of the control group reached an average of 1000 mg the mice were weighed, sacrificed and the tumor removed.
(Xenograft models place foreign cells or tissue in a host animal.)

A further data set has as its system Trichophyton rubrum. As to the kind of experiment: Antifungal susceptibility testing, broth dilution (MIC/MFC). The note with it: Trichophyton species. It counts as cell-based. The procedure:
Specifically, disclosed compounds were evaluated alongside commercially available microtubulin inhibitors as well as recognized antifungal agents.
Microorganisms against which these compounds were tested included: Candida albicans, Candida glabrata, Aspergillus fumigatus, Trichophyton rubrum, Trichophyton mentagrophytes, Epidermophyton floccosum. With the exception of Candida glabrata (one isolate), two isolates of each species were tested.
The minimum lethal concentration (MLC) was determined by plating […] from the MIC concentration and each concentration above the MIC. […] When a MIC was obtained, a minimum fungicidal concentration (MFC) was determined to assess the fungistatic/fungicidal nature of the compound.
A general note: Dilution methods test growth across graded concentrations, often in twofold steps.

[1] abbreviates: Colon HT-29 (3 studies), CPT-11 Days 1, 8, 15 alone.

What is called melting point is the temperature of the solid-liquid transition. Turning to `CC(C)(C)c1ocnc1/C=c1\[nH]c(=O)/c(=C/c2cccc(Cl)c2)[nH]c1=O`, the melting point lay within 171 to 173 °C.

`Cc1ccccc1/C=c1\[nH]c(=O)/c(=C/c2ncoc2C(C)(C)C)[nH]c1=O` gave a melting point of 177 to 179 °C.

`CC(C)(C)c1ocnc1/C=c1\[nH]c(=O)/c(=C/c2ccc(Br)o2)[nH]c1=O` gave a melting point of 184 to 186 °C.

In the case of `CC(C)(C)c1ocnc1/C=c1\[nH]c(=O)/c(=C/c2cccs2)[nH]c1=O`, the melting point fell in the range of 211 to 213 °C.

On to `Cc1oc(-c2ccccc2)cc1/C=c1\[nH]c(=O)/c(=C/c2ncoc2C(C)(C)C)[nH]c1=O`, for which the melting point was 218 to 220 °C.

For the compound `CC(C)(C)c1ocnc1/C=c1\[nH]c(=O)/c(=C/c2cc(F)cc3c2OCOC3)[nH]c1=O`, the melting point was 189 to 191 °C.

`CC(C)(C)c1ocnc1/C=c1\[nH]c(=O)/c(=C/c2cccc(C(=O)c3ccccc3)c2)[nH]c1=O`: the melting point lay within 151 to 153 °C.

On to `CCc1c2c(nc3ccc(OC(=O)N4CCC(N5CCCCC5)CC4)cc13)-c1cc3c(c(=O)n1C2)COC(=O)[C@]3(O)CC` [CPT-11, Irinotecan, reference compound], for which the “Tumor Growth Inhibition (%) Reference Agent” value in the data set on HT-29 human colon tumor (setting [1]) worked out at 37 ± 3%. Further, the “Tumor Regression (#/total) Reference Agent” value with HT-29 human colon tumor (setting [1]) is 0/30. Besides, the “Chemotherapeutic Agent Result TGI %” value with HT-29 human colon tumor (Study 2139) is on record as 32.7%; with HT-29 human colon tumor (Study 2164), 39* %; in the data set on HT-29 human colon tumor (Study 2288), 36.5* %. The “TGI vs NCI criterion” value in the data set on HT-29 human colon tumor (study of KPU-2, KPU-35 and t-butyl-phenylahistin +/- CPT-11) was “did not reach this level”.

For `CC(C)(C)c1ocnc1/C=c1\[nH]c(=O)/c(=C/c2cccc(F)c2)[nH]c1=O` [KPU-202, 3-{(Z)-1-[5-(tert-Butyl)-1H-4-oxazolyl]methylidene}-6-[(Z)-1-(3-fluorophenyl)methylidene]-2,5-piperazinedione], the melting point fell in the range of 143 to 145 °C.

Regarding `CC(C)(C)c1ocnc1/C=c1\[nH]c(=O)/c(=C/c2ccccc2Cl)[nH]c1=O` [KPU-204, 3-{(Z)-1-[5-(tert-Butyl)-1H-4-oxazolyl]methylidene}-6-[(Z)-1-(2-chlorophenyl)methlidene]-2,5-piperazinedione], the melting point was in the range of 166 to 168 °C.

In turn, `COc1cc(/C=c2\[nH]c(=O)/c(=C/c3ncoc3C(C)(C)C)[nH]c2=O)cc(OC)c1` [KPU-208, 3-{(Z)-1-[5-(tert-Butyl)-1H-4-oxazolyl]methylidene}-6-[(Z)-1-(3,5-dimethoxyphenyl)methlidene]-2,5-piperazinedione] came in with a melting point of 171 to 173 °C.

As to `CC(C)(C)c1ocnc1/C=c1\[nH]c(=O)/c(=C/c2cc(Cl)cc(Cl)c2)[nH]c1=O` [KPU-209, 3-{(Z)-1-[5-(tert-Butyl)-1H-4-oxazolyl]methylidene}-6-[(Z)-1-(3,5-dichlorophenyl)methlidene]-2,5-piperazinedione], the melting point lay in the range of 202 to 204 °C.

`CCOc1cccc(/C=c2\[nH]c(=O)/c(=C/c3ncoc3C(C)(C)C)[nH]c2=O)c1` [KPU-210, 3-{(Z)-1-[5-(tert-Butyl)-1H-4-oxazolyl]methylidene}-6-[(Z)-1-(3-ethoxyphenyl)methlidene]-2,5-piperazinedione] yielded a melting point of 124 to 126 °C.

As for `CC(C)(C)c1ocnc1/C=c1\[nH]c(=O)/c(=C/c2cccc(Br)c2)[nH]c1=O` [KPU-212, 3-{(Z)-1-[5-(tert-Butyl)-1H-4-oxazolyl]methylidene}-6-[(Z)-1-(3-bromophenyl)methlidene]-2,5-piperazinedione], the melting point fell in the range of 170 to 172 °C.

For `CC(C)(C)c1ocnc1/C=c1\[nH]c(=O)/c(=C/c2ccccc2F)[nH]c1=O` [KPU-214, 3-{(Z)-1-[5-(tert-Butyl)-1H-4-oxazolyl]methylidene}-6-[(Z)-1-(2-fluorophenyl)methlidene]-2,5-piperazinedione], the melting point lay within 170 to 172 °C.

For `CC(C)(C)c1ocnc1/C=c1\[nH]c(=O)/c(=C/c2ccccc2[N+](=O)[O-])[nH]c1=O` [KPU-215, 3-{(Z)-1-[5-(tert-Butyl)-1H-4-oxazolyl]methylidene}-6-[(Z)-1-(2-nitrophenyl)methlidene]-2,5-piperazinedione], the melting point was 149 to 151 °C.

As to `CC(C)(C)c1ocnc1/C=c1\[nH]c(=O)/c(=C/c2cccc(OC(F)(F)F)c2)[nH]c1=O` [KPU-216, 3-{(Z)-1-[5-(tert-Butyl)-1H-4-oxazolyl]methylidene}-6-[(Z)-1-(3-trifluoromethoxyphenyl)methlidene]-2,5-piperazinedione], the melting point was 187 to 189 °C.

With `CC(C)(C)c1ocnc1/C=c1\[nH]c(=O)/c(=C/c2ccoc2)[nH]c1=O` [KPU-217, 3-{(Z)-1-[5-(tert-Butyl)-1H-4-oxazolyl]methylidene}-6-[(Z)-1-(3-furyl)methlidene]-2,5-piperazinedione], the melting point is 164 to 166 °C.

As to `Cc1ccsc1/C=c1\[nH]c(=O)/c(=C/c2ncoc2C(C)(C)C)[nH]c1=O` [KPU-219, 3-{(Z)-1-[5-(tert-Butyl)-1H-4-oxazolyl]methylidene}-6-[(Z)-1-(3-methyl-2-thienyl)methlidene]-2,5-piperazinedione], the melting point was in the range of 142 to 144 °C.

Compound `COc1ccccc1/C=c1\[nH]c(=O)/c(=C/c2ncoc2C(C)(C)C)[nH]c1=O` [KPU-224, 3-{(Z)-1-[5-(tert-Butyl)-1H-4-oxazolyl]methylidene}-6-[(Z)-1-(2-methoxyphenyl)methlidene]-2,5-piperazinedione] had a melting point of 151 to 153 °C.

`CC(C)(C)c1ocnc1/C=c1\[nH]c(=O)/c(=C/c2ccsc2)[nH]c1=O` [KPU-226, 3-{(Z)-1-[5-(tert-Butyl)-1H-4-oxazolyl]methylidene}-6-[(Z)-1-(3-thienyl)methlidene]-2,5-piperazinedione] gave a melting point of 155 to 157 °C.

Take `CC(C)(C)c1ocnc1/C=c1\[nH]c(=O)/c(=C/CCc2ccccc2)[nH]c1=O` [KPU-228, 3-{(Z)-1-[5-(tert-Butyl)-1H-4-oxazolyl]methylidene}-6-[(Z)-1-(phenylpropyl)methlidene]-2,5-piperazinedione]: the melting point was 180 to 182 °C.

Regarding `CCOc1ccc2ccccc2c1/C=c1\[nH]c(=O)/c(=C/c2ncoc2C(C)(C)C)[nH]c1=O` [KPU-229, 3-{(Z)-1-[5-(tert-Butyl)-1H-4-oxazolyl]methylidene}-6-[(Z)-1-(2-ethoxy-1-naphthyl)methlidene]-2,5-piperazinedione], the melting point lay within 201 to 203 °C.

The compound `COc1ccc2ccccc2c1/C=c1\[nH]c(=O)/c(=C/c2ncoc2C(C)(C)C)[nH]c1=O` [KPU-230, 3-{(Z)-1-[5-(tert-Butyl)-1H-4-oxazolyl]methylidene}-6-[(Z)-1-(2-methoxy-1-naphthyl)methlidene]-2,5-piperazinedione] displayed a melting point of 234 to 236 °C.

Compound `CC(C)(C)c1ocnc1/C=c1\[nH]c(=O)/c(=C/c2c3ccccc3cc3ccccc23)[nH]c1=O` [KPU-231, 3-{(Z)-1-[5-(tert-Butyl)-1H-4-oxazolyl]methylidene}-6-[(Z)-1-(9-anthryl)methlidene]-2,5-piperazinedione] returned a melting point of 274 to 276 °C.

As for `CC(C)(C)c1ocnc1/C=c1\[nH]c(=O)/c(=C/c2ccc(-c3cccs3)s2)[nH]c1=O` [KPU-234, 3-{(Z)-1-[5-(tert-Butyl)-1H-4-oxazolyl]methylidene}-6-[(Z)-1-(2,2′-bithienyl)methlidene]-2,5-piperazinedsione], the melting point fell in the range of 212 to 214 °C.

Regarding `CC(C)(C)c1ocnc1/C=c1\[nH]c(=O)/c(=C/c2cc(F)cc(F)c2F)[nH]c1=O` [KPU-235, 3-{(Z)-1-[5-(tert-Butyl)-1H-4-oxazolyl]methylidene}-6-[(Z)-1-(2,3,5-trifluorophenyl)methylidene]-2,5-piperazinedione], the melting point fell in the range of 185 to 187 °C.

With `CC(C)(C)c1ocnc1/C=c1\[nH]c(=O)/c(=C/c2c(F)c(F)cc(F)c2F)[nH]c1=O` [KPU-236, 3-{(Z)-1-[5-(tert-Butyl)-1H-4-oxazolyl]methylidene}-6-[(Z)-1-(2,3,5,6-tetrafluorophenyl)methlidene]-2,5-piperazinedione], the melting point was 194 to 196 °C.

Take `CC(C)(C)c1ocnc1/C=c1\[nH]c(=O)/c(=C/c2c(F)ccc(F)c2F)[nH]c1=O` [KPU-238, 3-{(Z)-1-[5-(tert-Butyl)-1H-4-oxazolyl]methylidene}-6-[(Z)-1-(2,36-trifluorophenyl)methlidene]-2,5-piperazinedione]: the melting point lay in the range of 212 to 214 °C.

Compound `CC(C)(C)c1ocnc1/C=c1\[nH]c(=O)/c(=C/c2cn(S(=O)(=O)c3ccccc3)c3ccccc23)[nH]c1=O` [KPU-239, 3-{(Z)-1-[5-(tert-Butyl)-1H-4-oxazolyl]methylidene}-6-[(Z)-1-(phenylsulfonyl-3-indolyl)methlidene]-2,5-piperazinedione] gave a melting point of 133 to 135 °C.

In the case of `CC(C)(C)c1[nH]cnc1/C=C1\NC(=O)[C@H](Cc2ccccc2)NC1=O` [t-butylphenylahistin], the “antifungal potency compared with griseofulvin” value with Trichophyton rubrum is “equivalent in potency or in some cases more potent than griseofulvin”.
